Reference: ChEMBL document CHEMBL4364352, “Inhibitors of KRAS May Potentially Provide Effective Cancer Treatment” (ACS Med Chem Lett, 2019)

Tests used:
GTPase KRas [1] = target: T1, GTPase KRas (Homo sapiens, UniProt P01116, G12C); test: Inhibition of KRAS G12C mutant in human MIAPaCa2 cells assessed as increase in accumulation of GDP bound KRAS G12C mutant protein incubated for 6 hrs; format: cell-based
GTPase KRas [2] = target: T1, GTPase KRas; test: Inhibition of KRAS G12C mutant in human NCI-H358 cells assessed as increase in accumulation of GDP bound KRAS G12C mutant protein incubated for 6 hrs; format: cell-based

T1 sequence (P01116 whole entry G12C): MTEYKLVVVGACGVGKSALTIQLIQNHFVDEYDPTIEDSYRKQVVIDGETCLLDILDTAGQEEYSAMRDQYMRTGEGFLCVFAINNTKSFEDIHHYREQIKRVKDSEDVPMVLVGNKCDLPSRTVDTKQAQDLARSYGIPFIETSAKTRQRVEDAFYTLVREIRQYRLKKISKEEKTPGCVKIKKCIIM

Structure (SMILES) | IC50 (GTPase KRas [1]) [nM] | IC50 (GTPase KRas [2]) [nM]
C=CC(=O)N1CCN(c2ncnc3c2CCC(c2c(C)ccc4[nH]ncc24)C3)[C@@H](C)C1 (stereo partly drawn) | 4860 | 
C=CC(=O)N1CCN(c2nc(OC[C@H]3CCCN3C)nc3c2C[C@@H](C)[C@H](c2c(C)ccc4[nH]ncc24)C3)CC1 | 236 | 129
